Source: patent publication US11135214B2, “Methods for enhancing the bio availability and exposure of a voltage-gated potassium channel opener” (priority 2018, dated 2021)
Where “and” joins values, the source holds several entries; their conditions need not be identical. Equal values may be shown once. Read-outs that look alike come from different tables or passages of the source.

Test: TMS crossover study, pharmacokinetic analysis
Type: in vivo, human
Conditions: for extrapolated area (% AUCextrap): full PK data set; for Compound A Plasma Concentration: individual subjects; for Cmax: read-out: Cmax
Procedure: A randomized, double-blind, placebo-controlled, transcranial magnetic stimulation (TMS) crossover study investigated the safety, tolerability, pharmacokinetics (PK), and pharmacodynamics (PD) of single doses of Compound A in healthy right-handed male subjects.
Twenty healthy right-handed male subjects were enrolled and randomized in a blinded fashion to receive a single oral dose of 20 mg Compound A or placebo (1:1 randomization ratio) on Day 1, then were crossed over to receive a single dose of the other treatment on Day 7.
Subjects were screened within 27 days prior to entering the study on Day 1. For Period 1, subjects were admitted to the study unit and dosed on Day 1, and discharged on Day 2. For Period 2, following a washout of 6 days, the same subjects were again admitted to the study unit and dosed on Day 7, and discharged on Day 8. All subjects returned to the clinical unit for an outpatient visit on Day 14, and received a follow-up telephone call on Day 37.
Subjects were dosed in a fed state, but the timing of dosing relative to meals was changed during the study, and varied between a high fat or standard meal eaten either 2 h or 30 minutes prior to dosing, and a high fat or standard meal eaten 1 h or 2.5 h after dosing.
The PK parameters for this study were summarized in two ways. Firstly, PK parameters were calculated where possible using the PK samples collected during each 24 h sampling period for Period 1 and Period 2 separately. Secondly, PK parameters were determined using samples beyond the 24 h sampling period (i.e., from Day 7/8 and/or Day 14). For subjects who received Compound A in the first period, PK samples taken prior to placebo treatment provided additional PK timepoints at >24 h. For subjects who received Compound A in the second period, there was no >24 h PK timepoint until a Day 14 PK sample was added. […] The full PK profile data set consists of the 16 subjects for whom PK samples were taken at >24 h post-dose. For discussion of the PK parameters below, the full PK profile data set was generally used, because it allowed more accurate estimation of PK parameters.
Initially, subjects were dosed 2 hours after a high fat meal with a relatively high fat lunch provided 1 hour after dosing. After blinded review of the PK profiles in the initial 8 subjects, the fat content of the lunch was reduced in an attempt to reduce the time to Tmax, so that the Cmax would fall within the timeframe of TMS measurements. In addition, the timing of the meal relative to dose was changed from 2 hours prior, to 30 minutes prior to dose and subsequently the fat content of the breakfast was reduced. All these changes were made in attempts to provide higher plasma levels during the TMS assessment periods. The timing and type of meal for each subject is specified in Table 13. […] As such the PK data is presented without categorization according to meal content, or relative timing of the meal.

[1] = 20 mg, Full PK Profile Data Set (N=16), Range
[2] = male, human, plasma, oral, 20 mg, Full PK Profile (N=16), Mean ± SD
[3] = male, human, plasma, oral, 20 mg, Full PK Profile (N=16), Range
[4] = male, human, plasma, oral, 20 mg, Full PK Profile Data Set (N=16), Mean ± SD

**Q.** Which “time of median peak plasma concentrations after administration” value (20 mg oral dose) does the source give for `Cc1cc(N2CCc3cc(F)ccc3C2)cc(C)c1NC(=O)CC(C)(C)C` [Compound A, N-[4-(6-fluoro-3,4-dihydro-1H-isoquinolin-2-yl)-2,6-dimethylphenyl]-3,3-dimethylbutanamide] here?
**A.** approximately 8 hours

**Q.** And the Tlast (20 mg, Full PK Profile (N=16), Mean ± SD)?
**A.** 235 ± 81.5 h

**Q.** And the Tlast (20 mg, Full PK Profile (N=16), Range)?
**A.** 142 to 360 h

**Q.** What about the MRTinf [1] of the same molecule?
**A.** 33 ± 304 h

**Q.** And the t1/2 [1]?
**A.** 48.2 ± 306 h

**Q.** And the Tlast (20 mg, Overall (N=20), Mean)?
**A.** 23.8 h

**Q.** What about the Tlast (20 mg, Overall (N=20), Range) of the same molecule?
**A.** 23.1 to 24.3 h

**Q.** And the Tlast (20 mg, Period 1 (N=10), Mean)?
**A.** 23.8 h

**Q.** What about the Tlast (20 mg, Period 1 (N=10), Range) of the same molecule?
**A.** 23.1 to 24.3 h

**Q.** And the Tlast (20 mg, Period 2 (N=10), Mean)?
**A.** 23.8 h

**Q.** And the Tlast (20 mg, Period 2 (N=10), Range)?
**A.** 23.5 to 24.1 h

**Q.** What about the “% AUCextrap, highest values” (20 mg, a number of subjects above 20%) of the same molecule?
**A.** ≤ 40%

**Q.** And the “extrapolated area (% AUCextrap)” value (20 mg, median)?
**A.** 19.9%

**Q.** And the “extrapolated area (% AUCextrap)” value (20 mg, range)?
**A.** 10.6-40.5%

**Q.** And the “Compound A Plasma Concentration” value (Compound A Treatment Period, 20 mg, 2 h, 5 minutes before TMS)?
**A.** 47.2 ng/mL and 1.55 ng/mL and 34 ng/mL and 0 ng/mL (5×) and 55.2 ng/mL and 10.6 ng/mL and 47.1 ng/mL and 3.1 ng/mL and 1.95 ng/mL and 25.7 ng/mL and 2.74 ng/mL and 10.7 ng/mL and 2.52 ng/mL and 8.01 ng/mL

**Q.** What about the “Compound A Plasma Concentration” value (Compound A Treatment Period, 20 mg, 4 h, 5 minutes before TMS) of the same molecule?
**A.** 38.7 ng/mL and 8.92 ng/mL and 48.4 ng/mL and 16.5 ng/mL and 50 ng/mL and 24.5 ng/mL and 38 ng/mL and 4.91 ng/mL and 2.54 ng/mL and 29.8 ng/mL and 4.06 ng/mL and 60.7 ng/mL and 22.3 ng/mL and 32.7 ng/mL and 52.1 ng/mL and 8.77 ng/mL and 41.9 ng/mL

**Q.** And the “Compound A Plasma Concentration” value (Compound A Treatment Period, 20 mg, 6 h, 5 minutes before TMS)?
**A.** 49.7 ng/mL and 71.2 ng/mL and 48.5 ng/mL and 47.0 ng/mL and 39.1 ng/mL and 37.6 ng/mL and 4.43 ng/mL and 51.9 ng/mL and 6.23 ng/mL and 57.6 ng/mL and 53.2 ng/mL and 54.9 ng/mL and 52.2 ng/mL and 25.1 ng/mL and 79.4 ng/mL

**Q.** And the “Compound A Plasma Concentration” value (Placebo Treatment Period (carry-over), 2 h)?
**A.** 0 ng/mL (9×) and 4.96 ng/mL and 5.27 ng/mL and 6.28 ng/mL and 3.81 ng/mL and 5.74 ng/mL and 3.94 ng/mL and 7.44 ng/mL and 8.04 ng/mL

**Q.** And the “Compound A Plasma Concentration” value (Placebo Treatment Period (carry-over), 4 h)?
**A.** 0 ng/mL (9×) and 4.35 ng/mL and 4.48 ng/mL and 5.51 ng/mL and 3.6 ng/mL and 5.36 ng/mL and 3.66 ng/mL and 6.83 ng/mL and 8.15 ng/mL

**Q.** What about the “Compound A Plasma Concentration” value (Placebo Treatment Period (carry-over), 6 h) of the same molecule?
**A.** 0 ng/mL (8×) and 5.56 ng/mL and 5.75 ng/mL and 3.42 ng/mL and 5.61 ng/mL and 3.44 ng/mL and 6.67 ng/mL and 8.22 ng/mL

**Q.** And the “Average high concentration of Compound A” value (during TMS assessment (FIG. 11, 12))?
**A.** 45 ng/mL

**Q.** And the concentration at 2 h (male, human, plasma, oral, 20 mg, Compound A Treatment Period, 2 h, Mean)?
**A.** 15.9 ng/mL

**Q.** And the concentration at 4 h (male, human, plasma, oral, 20 mg, Compound A Treatment Period, 4 h, Mean)?
**A.** 30.1 ng/mL

**Q.** And the concentration at 6 h (male, human, plasma, oral, 20 mg, Compound A Treatment Period, 6 h, Mean)?
**A.** 42.1 ng/mL

**Q.** And the half-life [2]?
**A.** 127 ± 84.6 h

**Q.** What about the AUC(0-t) (male, human, plasma, oral, 20 mg, Full PK Profile (N=16), Mean ± SD, read-out: AUC0-24) of the same molecule?
**A.** 692 ± 151 ng·h/mL

**Q.** And the Cmax [2]?
**A.** 60.1 ± 14.9 ng/mL

**Q.** And the Tmax (male, human, plasma, oral, 20 mg, Full PK Profile (N=16), Median)?
**A.** 6.83 h

**Q.** What about the Tmax [3] of the same molecule?
**A.** 1.92 to 12 h

**Q.** What about the half-life [3] of the same molecule?
**A.** 48.2 to 306 h

**Q.** And the AUC(0-t) (male, human, plasma, oral, 20 mg, Full PK Profile (N=16), Range, read-out: AUC0-24)?
**A.** 383 to 951 ng·h/mL

**Q.** What about the Cmax [3] of the same molecule?
**A.** 29.9 to 79.4 ng/mL

**Q.** What about the AUC(0-inf) [4] of the same molecule?
**A.** 3160 ng·h/mL

**Q.** What about the MRT inf [4] of the same molecule?
**A.** 102 h

**Q.** And the MRT last [4]?
**A.** 77.4 ± 23.7 h

**Q.** What about the half-life [4] of the same molecule?
**A.** 127 h

**Q.** What about the AUC(0-t) (male, human, plasma, oral, 20 mg, Full PK Profile Data Set (N=16), Mean ± SD, read-out: AUClast) of the same molecule?
**A.** 2370 ng·h/mL

**Q.** And the CL/F (male, human, plasma, oral, 20 mg, Full PK Profile Data Set (N=16), Mean ± SD, read-out: CL/F normalized (converted))?
**A.** 1.62 mL/min/kg

**Q.** What about the Vd/F (male, human, plasma, oral, 20 mg, Full PK Profile Data Set (N=16), Mean ± SD, read-out: Vz/F normalized) of the same molecule?
**A.** 16.3 L/kg

**Q.** And the AUC(0-inf) (male, human, plasma, oral, 20 mg, Full PK Profile Data Set (N=16), Range)?
**A.** 1920 ± 7390 ng·h/mL
